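96-well plates; 48 h exposure; 5 concentrations. Endpoints by linear interpolation between flanking doses. Not reached: highest tested concentration assigned. TGI marks complete inhibition of growth.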 Some results are limits rather than exact numbers.

Some test systems named below: DMS 114 small cell lung; HCT-15 colon; SF-539 CNS; SK-MEL-5 melanoma; OVCAR-8 ovarian; A549 NSCLC; LXFL 529 NSCLC; SNB-19 CNS.
What all share (assay): NCI-60 cell line screen, 48 h

In the case of `COCCOCOC(CCCCO)c1cc(C)c(O[Si](C)(C)C(C)(C)C)c(C)c1` (centres undefined), the TGI came out at 10.2 µM in the assay with DMS 114 small cell lung; 21.1 µM in the assay with HCT-15 colon; 26 µM in the assay on SF-539 CNS; 12.8 µM in the assay with SK-MEL-5 melanoma; 18.7 µM in the assay on OVCAR-8 ovarian; 16.1 µM in the assay with A549 NSCLC. Also, the values for the TGI in the assay on LXFL 529 NSCLC and in the assay on SNB-19 CNS were 22.6 µM and 19.2 µM, respectively.

As for `CCCC/C=C/C=C/C=C/CCCCCCCC(=O)OCC(COC(=O)CCCCCCC/C=C/C1C=CC(CCCC)C(C(=O)O)C1C(=O)O)OC(=O)CCCCCCC/C=C/C=C/C=C/CCCC` (centres undefined) (tested in a mixture with another compound), the TGI in the assay on DMS 114 small cell lung amounted to 23.1 µM; with HCT-15 colon, 30.8 µM; in the assay on SF-539 CNS, 39.1 µM; with SK-MEL-5 melanoma, 31.1 µM; in the assay with OVCAR-8 ovarian, 44.5 µM; in the assay on A549 NSCLC it was 37.1 µM. Also, the results for the TGI in the assay with LXFL 529 NSCLC and in the assay on SNB-19 CNS were 32.8 µM and 46.1 µM, respectively.

Consider `CN(C)C=Nc1nc(=O)n(C2CCC(CO)O2)cc1F` (centres undefined), for which the TGI with HCT-15 colon, in the assay on SK-MEL-5 melanoma, in the assay with OVCAR-8 ovarian, with A549 NSCLC, in the assay on LXFL 529 NSCLC and with SNB-19 CNS was over 100 µM throughout.

On to `COc1ccc(/C=C/COC(C)=O)cc1OC`, for which the TGI in the assay with DMS 114 small cell lung, with HCT-15 colon, in the assay with SF-539 CNS, in the assay with SK-MEL-5 melanoma, with OVCAR-8 ovarian and with A549 NSCLC was over 100 µM each time. Moreover, the TGI in the assay on LXFL 529 NSCLC and in the assay on SNB-19 CNS was over 100 µM throughout.

As to `S=P1(Oc2ccccc2)NNP2(=NP(N3CC3)(N3CC3)=NP(N3CC3)(N3CC3)=N2)NN1` (centres undefined), the TGI with DMS 114 small cell lung, in the assay with HCT-15 colon, in the assay on SF-539 CNS, in the assay with SK-MEL-5 melanoma, in the assay on OVCAR-8 ovarian and in the assay on A549 NSCLC was over 100 µM in each case. Besides, the TGI in the assay on LXFL 529 NSCLC and with SNB-19 CNS was over 100 µM in each case.

For `COc1ccc2c(c1)[n+]([O-])c(C(N)=O)c(N)[n+]2[O-]`, the TGI in the assay on DMS 114 small cell lung is 98.8 µM; in the assay on HCT-15 colon, over 100 µM; with SF-539 CNS, over 100 µM; with SK-MEL-5 melanoma it was over 100 µM; with OVCAR-8 ovarian, over 100 µM; with A549 NSCLC, over 100 µM. For the same compound, the TGI with LXFL 529 NSCLC and in the assay with SNB-19 CNS was over 100 µM in each case.

As for `N#CCCC[Si]12OCCN(CCO1)CCO2`, the TGI in the assay on DMS 114 small cell lung, in the assay on SF-539 CNS, with SK-MEL-5 melanoma, with OVCAR-8 ovarian, in the assay with A549 NSCLC and in the assay with LXFL 529 NSCLC was over 100 µM each time. In the assay on SNB-19 CNS, the TGI was over 100 µM.

In the case of `Cc1ccc(S(=O)(=O)N2CCC2c2ccccc2)cc1` (centres undefined), the TGI in the assay on DMS 114 small cell lung, in the assay on HCT-15 colon, in the assay on SF-539 CNS, with SK-MEL-5 melanoma, in the assay on OVCAR-8 ovarian and in the assay with A549 NSCLC was over 100 µM in each case. In addition, the TGI in the assay on SNB-19 CNS is over 100 µM.

Consider `N#CC(C(=O)CCC(=O)Nc1ccc(Cl)c(Cl)c1)c1ccccc1` (centres undefined), for which the TGI in the assay on DMS 114 small cell lung, with HCT-15 colon, in the assay with SF-539 CNS, in the assay with SK-MEL-5 melanoma, in the assay with OVCAR-8 ovarian and in the assay with A549 NSCLC was over 100 µM each time. The TGI in the assay with SNB-19 CNS is over 100 µM.

`O=S1C(=c2ccc(=C3Sc4ccccc4S3)cc2)Sc2ccccc21` (centres undefined): the TGI was over 56.4 µM in the assay with DMS 114 small cell lung; 28.9 µM in the assay on HCT-15 colon; 30.5 µM in the assay on SF-539 CNS; 33.3 µM in the assay on SK-MEL-5 melanoma; 34.4 µM in the assay with OVCAR-8 ovarian; 35.5 µM with A549 NSCLC. For the same compound, the TGI is over 100 µM in the assay with LXFL 529 NSCLC and 30.7 µM in the assay with SNB-19 CNS.

With `O=C(/C=C/c1c(O)ccc2ccccc12)c1ccc([N+](=O)[O-])cc1`, the TGI in the assay on DMS 114 small cell lung is 41.1 µM; with HCT-15 colon it was over 66.8 µM; with SF-539 CNS, over 90.8 µM; in the assay with SK-MEL-5 melanoma it was 34.5 µM; in the assay with OVCAR-8 ovarian it was over 61.6 µM; in the assay with A549 NSCLC, over 100 µM. In addition, the results for the TGI with LXFL 529 NSCLC and in the assay with SNB-19 CNS were 30.4 µM and over 100 µM, respectively.

With `O=c1[nH]c(-c2ccccc2)nc2cc(Cl)ccc12`, the TGI with DMS 114 small cell lung, in the assay on HCT-15 colon, with SF-539 CNS, in the assay on SK-MEL-5 melanoma, with OVCAR-8 ovarian and with A549 NSCLC was over 100 µM in each case. For the same compound, the TGI in the assay on LXFL 529 NSCLC was over 100 µM.

Regarding `COc1c(CC(C)=O)ccc2c1C(=O)c1ccc(C=O)c(OC(C)=O)c1C2=O`, the TGI in the assay on DMS 114 small cell lung was 33.2 µM; with HCT-15 colon it was 29.5 µM; in the assay with SF-539 CNS it was 20.8 µM; with SK-MEL-5 melanoma, 27.8 µM; in the assay with OVCAR-8 ovarian, 97.3 µM; in the assay on A549 NSCLC, over 100 µM. The figures for the TGI in the assay on LXFL 529 NSCLC and in the assay with SNB-19 CNS were 19.4 µM and 57.4 µM, respectively.

As for `CCOC(=O)/C(=C/c1ccc(OC)cc1)N(CC)CC`, the TGI with DMS 114 small cell lung, in the assay with HCT-15 colon, with SF-539 CNS, in the assay with SK-MEL-5 melanoma, in the assay with OVCAR-8 ovarian and in the assay on A549 NSCLC was over 100 µM throughout. In addition, the TGI in the assay with LXFL 529 NSCLC and in the assay with SNB-19 CNS was over 100 µM in each case.

Consider `CN(C)C(=S)/N=c1\ssc(=S)n1C1CCCCC1`, for which the TGI was 50.5 µM in the assay with DMS 114 small cell lung; over 100 µM with HCT-15 colon; 48.3 µM with SF-539 CNS; 73.2 µM with SK-MEL-5 melanoma; 53.9 µM with OVCAR-8 ovarian; over 100 µM with A549 NSCLC. The TGI with LXFL 529 NSCLC is 75.6 µM; in the assay with SNB-19 CNS, over 100 µM.

Turning to `CN(C)CC1CCCC/C1=N/O` (centres undefined), the TGI with DMS 114 small cell lung, in the assay with HCT-15 colon, in the assay on SF-539 CNS, with SK-MEL-5 melanoma, in the assay on OVCAR-8 ovarian and in the assay with A549 NSCLC was over 100 µM throughout. For the same compound, the TGI in the assay on LXFL 529 NSCLC was over 100 µM.

As to `O=C(Nc1nc(=S)[nH][nH]1)C(=O)C(C(=O)c1ccc2ccccc2c1)C1OC(=O)c2ccccc21` (centres undefined), the TGI in the assay with DMS 114 small cell lung is 52.7 µM; in the assay on HCT-15 colon it was 78.5 µM; in the assay on SF-539 CNS, 25.2 µM; in the assay on SK-MEL-5 melanoma it was 43.9 µM; in the assay on OVCAR-8 ovarian, 94.4 µM; in the assay on A549 NSCLC, over 100 µM. The TGI came to 52.7 µM with LXFL 529 NSCLC and 33.3 µM with SNB-19 CNS.

The record behind these values is PubChem BioAssay (NCI).
